Each block holds one compound with its values, some of them ahead of it.
Key:
cathepsin-B = biological target: T1, cathepsin-B (Rattus norvegicus, UniProt P00787); test: Fluorescence-based cathepsin-B activity assay (RR-AFC substrate) in liver and spleen homogenates of treated rats; assay type: in vivo, Sprague-Dawley rats
T1 construct: from tissue; host or cells: liver and spleen homogenates of Sprague-Dawley rats
Protocol: Cathepsin-B is a lysosomal protease that plays an important role in intracellular proteolysis. […] Liver and spleen homogenates were analyzed using a fluorescence-based assay that utilized the preferred cathepsin-B substrate sequence RR labeled with amino-4-trifluoromethyl coumarin (AFC). Samples that contain cathepsin-B cleave the synthetic substrate RR-AFC to release free AFC.

di-22:6-BMP = test: PL biomarker di-22:6-BMP in tissues and urine; assay type: in vivo, Sprague-Dawley rats; settings: 2 weeks; for PL biomarker di-22:6-BMP in tissues (PL induced in both treatment groups): amiodarone 150 mg/kg/day alone or co-administered with fluoxetine 10 mg/kg/day, heart, liver, kidney, lung; for di-22:6-BMP biomarker in various tissues (PL induced): fluoxetine 10 mg/kg/day alone or co-administered with amiodarone 150 mg/kg/day
[1] = amiodarone 150 mg/kg/day co-administered with fluoxetine 10 mg/kg/day, 2 weeks, vs amiodarone alone
Excerpt: Heart, liver, kidney and lung tissues were collected at necropsy at 2 weeks.

liver, kidney, and heart = test: Electron microscopic examination of tissue sections for phospholipidosis, 2-week repeat dose study; assay type: in vivo, Sprague-Dawley rats; settings: co-administered bedaquiline 60 mg/kg/day and citalopram 70 mg/kg/day, 2 weeks
Protocol: FIG. 3 is a set of electron micrographs depicting the accumulation of lysosomal myeloid bodies, indicative of PL, in rat tissues. Sprague-Dawley rats received once daily oral (PO) co-administration of bedaquiline (60 mg/kg/day) and citalopram (70 mg/kg/day) for 2 weeks.
Sprague-Dawley rats were co-administered bedaquiline (60 mg/kg/day) and citalopram (70 mg/kg/day) in a 2-week repeat dose study. Tissue sections (liver, kidney, and heart) were collected at 2 weeks for electron microscopic examination and PL biomarker/proteomic evaluation.

cathepsin B1 = cathepsin B1 (Rattus norvegicus, UniProt P00787); settings: Wibo and Poole 1974; cited from earlier work
[2] = Fluoxetine tissue concentrations, alone or co-administered with amiodarone; assay type: in vivo, Sprague-Dawley rats; settings: fluoxetine 10 mg/kg/day co-administered with amiodarone 150 mg/kg/day, 2 weeks; tissues including brain
Excerpt: FIG. 8 is a set of graphs showing that PL-induction increased drug tissue concentrations to enhance in vivo drug efficacy.
PL was induced as indicated by an increase in the di-22:6-BMP biomarker in various tissues.

T1 sequence (P00787 80-333): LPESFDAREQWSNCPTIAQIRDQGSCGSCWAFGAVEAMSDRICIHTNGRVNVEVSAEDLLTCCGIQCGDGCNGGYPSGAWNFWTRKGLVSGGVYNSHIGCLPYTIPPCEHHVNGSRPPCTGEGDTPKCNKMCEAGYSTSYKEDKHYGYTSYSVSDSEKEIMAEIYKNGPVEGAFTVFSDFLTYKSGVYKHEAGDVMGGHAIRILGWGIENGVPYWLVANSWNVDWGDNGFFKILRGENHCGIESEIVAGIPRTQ
cathepsin B1, sequence (P00787 80-333): as above

- activity of cathepsin B in rat liver and spleen (cathepsin-B; PL induced by amiodarone): slowed
- levels of free AFC in tissues compared to controls (cathepsin-B activity) (cathepsin-B; amiodarone 150 mg/kg/day, 2 weeks, liver and spleen homogenates): lower
- concentration of amiodarone in the lung tissue [1]: decreased
SMILES: CCCCc1oc2ccccc2c1C(=O)c1cc(I)c(OCCN(CC)CC)c(I)c1 [amiodarone]
- PL biomarker di-22:6-BMP in tissues (PL induced in both treatment groups) (di-22:6-BMP): increase
- di-22:6-BMP biomarker in various tissues (PL induced) (di-22:6-BMP): increase

SMILES: COc1nc2ccc(Br)cc2cc1[C@@H](c1ccccc1)[C@@](O)(CCN(C)C)c1cccc2ccccc12 [bedaquiline]
- multi-lamellar lysosomal inclusions and electron dense deposits (indicative of drug-induced PL) (liver, kidney, and heart): treatment-dependent increase
- biomarker di-22:6-BMP in rat tissues and urine (di-22:6-BMP; co-administered bedaquiline 60 mg/kg/day and citalopram 70 mg/kg/day): increase

SMILES: CCN(CC)CCCC(C)Nc1ccnc2cc(Cl)ccc12 (centres unmarked) [chloroquine]
- cathepsin B1 activities (cathepsin B1): inhibited

- fluoxetine concentrations in tissues, compared to fluoxetine alone [2]: increased
SMILES: CNCCC(Oc1ccc(C(F)(F)F)cc1)c1ccccc1 (centres unmarked) [fluoxetine]
- PL biomarker di-22:6-BMP in tissues (PL induced in both treatment groups) (di-22:6-BMP): increase
- di-22:6-BMP biomarker in various tissues (PL induced) (di-22:6-BMP): increase
